{"source": "patent US8688227B2", "about": "“Suction electrode-based medical instrument and system including the medical instrument for therapeutic electrotherapy” (Old Dominion Research Foundation, priority 2007, dated 2014)", "key": {"hippocampal CA1 neurons": {"test_system": "hippocampal CA1 neurons", "conditions": "cited from earlier work"}, "liver cells": {"test_system": "liver cells", "conditions": "oxidative stress-activated NSCCs; cited from earlier work"}, "nsPEF-exposed cells": {"test_system": "nsPEF-exposed cells", "assay": "Whole-cell patch clamp of membrane conductance/resistance after nsPEF exposure", "format": "cell-based", "method": "Experiments were performed in GH3 cells (a murine pituitary cell line) and HeLa cells (human epithelial cancer), both obtained from American Type Culture Collection (ATCC, Manassas, Va.) and cultured according to their recommendations. Cells were grown in 75-cm2 flasks at 37° C. with 5% CO2 in air. GH3 cells were cultured in Ham's F12K medium supplemented with 2.5% fetal bovine serum (FBS) and 15% horse serum (Atlanta Biologicals, Norcross, Ga.). HeLa cells were propagated in Eagle minimum essential medium with 10% FBS. The cultures also contained 1% L-glutamine and 1% penicillin/streptomycin (Mediatech Cellgro, Herndon, Va.). For passaging, cells were removed from the substrate with 2-3 ml of 0.25% Trypsin with 2.21 mM EGTA. The cultures were maintained in the logarithmic stage of growth and used at passages 3-15. For a passage immediately preceding the experiments, cells were grown attached to 8- or 10-nun diameter glass cover slips in 35-mm Petri dishes. The cover slips were pretreated with poly-1-lysine (Sigma-Aldrich, St. Louis, Mo.) to improve cell adherence.\nThese pairs were formulated to explore, in the first approximation, how different ion substitutions would affect Gm and the reversal potential (Erev) after nsPEF exposure. Two pairs (Cs/Na and Cs/Ba-TEA) were also used to explore nsPEF effects on voltage-gated Na^+ and Ca^2+ channels, respectively. In general, solution pairs from the top to the bottom of the Table 1 contain diminishing amounts and variety of monovalent ions, i.e., K and/or Na were replaced with larger cs^+, TEA^+, or NMDG^+. The contents of anions (C1 and HEPES) were kept almost constant and the same in bath and pipette solutions, except for the last pair, where most of the pipette C1 was replaced with HEPES^−. The pH of pipette and bath solutions was adjusted to 7.4 and 7.2, respectively; the ionic contents shown in Table 1 already include any extra amounts of ions added as a base or acid for pH adjustment. The osmolality of all solutions was between 290 and 320 mOsm, as measured with a freezing point microosmometer (Advanced Instruments, Inc., Norwood, Mass., USA).\nPatch clamp recording: Cells on a cover slip were transferred into a glass-bottomed chamber (Warner Instruments, Hamden, Conn.) mounted on a motorized stage (Prior Scientific Inc., Rockland, Mass.) of an IX71 FluoView™ 300 confocal laser scanning microscope. […] The data from these experiments were analyzed differently (see below). […]\nOnce the whole-cell configuration was formed, the membrane resistance and capacitance (Rm and Cm) were measured using the Membrane Test utility of pClamp1 0 software. […] The membrane potential (MP) was measured by switching briefly from voltage to current clamp mode at I=0. […]"}, "GH3 or HeLa cells": {"test_system": "GH3 or HeLa cells", "assay": "PI uptake, positive control for permeabilization", "format": "cell-based", "conditions": "0.03% added into the bath", "method": "Moreover, the cells remained impermeable to PI even after extra-long trains of 200 pulses, which caused necrotic changes in cells morphology, and even when the observation period was extended to 30-60 min after the exposure."}}, "note": "Like-named read-outs stand apart in the source and are kept apart here.", "data": [{"smiles": "[Cl][Gd]([Cl])[Cl]", "note": "[Gd^3+]", "values": [{"measurement": "swelling and other deleterious effects of oxygen-glucose deprivation", "setting": "hippocampal CA1 neurons; 100 AM", "result": "reduced swelling"}, {"measurement": "number of necrotic cells", "setting": "liver cells", "result": "sharply decreased"}, {"measurement": "protective effect against nsPEF", "setting": "nsPEF-exposed cells; 0.2 mM, first trials", "result": "no protection"}]}, {"smiles": "[Cl][La]([Cl])[Cl]", "note": "[La^3+]", "values": [{"measurement": "swelling and other deleterious effects of oxygen-glucose deprivation", "setting": "hippocampal CA1 neurons; 100 AM", "result": "reduced swelling"}]}, {"smiles": "C[C@@H]1CC[C@@]2(OC1)O[C@H]1[C@@H](O)[C@H]3[C@@H]4CC[C@H]5C[C@@H](O[C@@H]6O[C@H](CO)[C@H](O[C@@H]7O[C@H](CO)[C@@H](O)[C@H](O[C@@H]8OC[C@@H](O)[C@H](O)[C@H]8O)[C@H]7O[C@@H]7O[C@H](CO)[C@H](O)[C@H](O[C@@H]8O[C@H](CO)[C@@H](O)[C@H](O)[C@H]8O)[C@H]7O)[C@H](O)[C@H]6O)[C@H](O)C[C@]5(C)[C@H]4CC[C@]3(C)[C@H]1[C@@H]2C", "note": "[digitonin]", "values": [{"measurement": "time to bright PI fluorescence after addition", "setting": "GH3 or HeLa cells", "result": "1 to 2", "unit": "min"}, {"measurement": "permeabilization, PI fluorescence", "setting": "GH3 or HeLa cells; PI in the medium", "result": "bright PI fluorescence"}]}, {"smiles": "N.N.N.N.N.N.N.N.N.N.N.N.N.N.[Cl-].[Cl-].[Cl-].[Cl-].[Cl-].[Cl-].[O-2].[O-2].[Ru+3].[Ru+3].[Ru+4]", "note": "[ruthenium red]", "values": [{"measurement": "swelling and other deleterious effects of oxygen-glucose deprivation", "setting": "hippocampal CA1 neurons; 1 ilM", "result": "reduced swelling"}, {"measurement": "membrane conductance increase by nsPEF", "setting": "nsPEF-exposed cells; 10 p.M in bath of K/Na pair, prior to 1 or 5 pulses", "result": "neither enhanced nor inhibited"}, {"measurement": "effect on control (sham-exposed) cells", "setting": "nsPEF-exposed cells; 50 and 200 μM in bath of K/Na pair", "result": "no apparent effect"}, {"measurement": "condition of nsPEF-exposed cells", "setting": "nsPEF-exposed cells; 50 and 200 μM in bath of K/Na pair, prior to 1 or 5 pulses", "result": "worsened the condition"}]}]}
